The test system of data set [1] is PGE2 release of human skin cells (keratinocytes). Description: Anti-Prostaglandin E2 (PGE2) assay, A23187-induced PGE2 release, ELISA. The conditions noted are these: for Maximum PGE2 inhibition: at optimum concentration, versus A23187-stimulated control; for Optimum: concentration giving maximum PGE2 inhibition; for IC50: primary human epidermal keratinocytes, 2 μM A23187 calcium ionophore, at least two independent experiments, read-out: IC50 (50% of PGE2 release is inhibited). The class given is cell-based. Here is the method: PGE2 is an important inflammatory mediator in the skin. Thus, the inhibiting effect of [6]-paradol and related compounds on (A23187-induced) PGE2 release of human skin cells (keratinocytes) is investigated.
Primary human epidermal keratinocytes are seeded into a 96 well microplate and are cultured in KGM medium to 60-80% confluency. Afterwards, the KGM medium is substituted by KGM medium depleted of hydrocortisone but containing the test compounds (test compound solutions are applied in medium in three different concentrations, each as a triple determination in three different wells, e.g. for [6]-paradol: in experiment 1 the following concentrations were used: 20 μM, 2 μM and 0.2 μM, in experiment 2 the following concentrations were used: 10 μM, 1 μM and 0.1 μM and in experiment 3 the following concentrations were used: 2.5 μM, 0.25 μM and 0.025 μM.
The cells are incubated for 30 minutes. Then, PGE2 release is stimulated by addition of 2 μM A23187 calcium ionophore. After further 30 min incubation, the PGE2 content of the supernatant is quantified in an ELISA (PGE2 Enzyme Immunoassay System from GE Healthcare).
The results set out above were obtained from at least two independent experiments. PGE2 inhibition was calculated in comparison to the calcium ionophore A23187-induced stimulated control (without addition of test compounds).

The conditions of data set [2]: literature reports; cited from earlier work.
A short description of data set [3]: Stability in cosmetic compositions or products at varying pH (own experiments). The class given is physicochemical. The conditions noted are these: basic, neutral or acidic cosmetic compositions or products. The source says:
Furthermore, in contrast to gingerols and shogaols, in particular to gingerols, which are labile and prone to degradation (J. Pharm. Sci. 2001, 1658-1664), thus showing insufficient stability, according to own experiments [6]-paradol is very stable in cosmetic compositions or products, even at varying pH-values, i.e. in basic, neutral or acidic cosmetic compositions or products.
The synergistic combinations of bisabolol and [6]-paradol, i.e. the formulations according to the present invention, are preferably colourless, are advantageously of low odour and show good stability even at pH values […], which is of particular interest for several cosmetic products such as sunscreen formulations, soaps, deo sticks, alkaline hair colourations and oral care formulations like tooth pastes. The synergistic combinations of bisabolol and [6]-paradol are advantageously stable over a wide range of pH-values, generally in cosmetic compositions or products having a pH-value in the range of 4 to 10, in particular in cosmetic compositions or products having a pH-value in the range of 5 to 9.

This is an account of results in US8951507B2, “Formulation with irritation reducing action comprising bisabolol and [6]-paradol” (Symrise AG, priority 2009, dated 2015).

Entries after “also recorded” stand apart in the source; their conditions may differ. Read-outs that look alike come from different tables or passages of the source.

Regarding `CCCCC[C@H](O)CC(=O)CCc1ccc(O)c(OC)c1` [[6]-Gingerol], in data set [1], the “Maximum PGE2 inhibition” value was approximately 30%, the Optimum came to 5 µM and the IC50 is 3470 ± 4080 nM. Further, in data set [2], the Mutagenicity result is recorded as “potent mutagen”.

As to `CCCCCCCC(=O)CCc1ccc(O)c(OC)c1` [[6]-Paradol, 1-(4-hydroxy-3-methoxyphenyl)-decan-3-one], the “Stability in cosmetic compositions or products” value in data set [3] is given as “very stable”. For the same compound, the IC50 in data set [1] (Keratinocyte) came to 130 nM. In addition, in data set [1] (among [6]-paradol, [6]-gingerol, [8]-gingerol and [8]-paradol), the “PGE2 inhibitory activity compared with the other tested compounds” value was “most active; also recorded: highest activity”. Besides, in data set [1], the “Maximum PGE2 inhibition” value is 90-100% and the Optimum came out at 5 µM. Besides, the Mutagenicity result in data set [2] is “not mutagenic”.

On to `CCCCCCC[C@H](O)CC(=O)CCc1ccc(O)c(OC)c1` [[8]-Gingerol], for which, in data set [1], the “Maximum PGE2 inhibition” value is recorded as approximately 70%, the Optimum turned out to be 20 µM and the IC50 worked out at 1420 ± 670 nM.

Turning to `CCCCCCCCCC(=O)CCc1ccc(O)c(OC)c1` [[8]-Paradol], in data set [1], the “Maximum PGE2 inhibition” value is given as 80-100%, the Optimum was found to be 10 µM and the IC50 was found to be 1480 ± 1210 nM.

In general, IC50 refers to the point on the concentration scale where inhibition reaches its midpoint.
